In patent US11331364B2, “Use for JNK inhibitor molecules for treatment of various diseases” (Xigen Inflammation Ltd., priority 2014, dated 2022):
Square brackets hold non-standard residues; d marks the D form. Peptide text beside a SMILES is read from it.

Key:
[1] = system: endotoxins-induced uveitis albino rat model; assay: Endotoxins-induced uveitis (EIU), single intravenous injection, clinical scoring; type: in vivo; design: key to clinical score (mean±SEM) / clinical score, median: clinical ocular inflammation score per eye, 0 to 4; settings: 24 h after LPS
Protocol: The anti-inflammatory potency of the JNK inhibitor of SEQ ID NO: 172 was tested in albino rats following intravenous administration (EIU/LPS model). The aim of this study was to determine the effects of single intravenous injections of SEQ ID NO: 172 (0.015, 0.18, and 1.80 mg/kg) on the inflammatory response in an endotoxins-induced uveitis albino rat model and to compare these affects to those obtained with prior art JNK inhibitor of SEQ ID NO: 197 (2 mg/kg). As a further control served phosphate sodic dexamethasone (“reference”) and vehicle (0.9% NaCl).
Sixty (60) male Lewis rats were randomly divided into six (6) groups often (10) animals each. 0.9% NaCl (vehicle, “control”), SEQ ID NO: 197 at 2 mg/kg and SEQ ID NO: 172 at three concentrations (1.80 mg/kg, 0.18 mg/kg and 0.015 mg/kg) were administered by intravenous injection just before EIU induction (on the day of induction). Accordingly, phosphate sodic dexamethasone (20 Dg/eye, 5 μl; “reference”) was administered by a single sub-conjunctival injection in both eyes just before EIU induction (on the day of induction). EIU was induced by footpad injection of lipopolysaccharide (LPS, 1 mg/kg). 24 hours after LPS injection, inflammatory response was evaluated by clinical scoring.
The intensity of clinical ocular inflammation was scored on a scale from 0 to 4 for each eye: […]

[2] = system: mouse model of scopolamine-induced dry eye; assay: Scopolamine-induced dry eye, topical ocular TID 21 days (TBUT, PRTT, histopathology); type: in vivo; settings: for Mean PRTT AUC: Day 7-21, in mm·day (unit assumed); for Mean Calculated TBUT AUC: Day 7 to Day 21, in s·day (unit assumed)
Protocol: The objective of this study was to assess the effects of two different compounds, the all-D-retro-inverso JNK-inhibitor (poly-)peptide of SEQ ID NO: 197 and the JNK inhibitor (poly-)peptide of SEQ ID NO: 172, at three dose levels in a mouse model of scopolamine-induced dry eye.
The peptides of SEQ ID NO: 197 and SEQ ID NO: 172 were tested for efficacy in this murine model of dry eye. The peptides were both tested at a low, medium and a high dose. […] The vehicle, which also served as the negative control, was 0.9% Sodium Chloride for Injection USP.
The study consisted of a total of 9 groups of female C57BL/6 mice, comprising 8 groups of 12 mice each and an additional group of 4 mice. Bilateral short-term dry eye was induced by a combination of scopolamine hydrobromide (Sigma-Aldrich Corp., St. Louis, Mo.) injection (subcutaneous (SC), four times daily, 0.5 mg/dose, Days 0-21) and by exposing mice to the drying environment of constant air draft. […] Mice of Group 9 were maintained as un-induced, (no dry eye) untreated controls.
During the in-life (treatment) period, clinical observations were recorded once daily; slit-lamp examination (SLE) with corneal fluorescein staining, tear break-up time test (TBUT), and phenol red thread test (PRTT) were performed three times per week. Necropsies were performed on Day 22; eyes, eye lids, conjunctivae, and lacrimal glands were collected from both eyes of each animal. Tissues from the right eyes (oculus dexter, OD) were fixed and then evaluated microscopically. Tissues from the left eyes (oculus sinister; OS) were flash-frozen in liquid nitrogen and stored frozen at −80° C. for possible subsequent analyses.
The TBUT test was conducted three times weekly by measuring the time elapsed in seconds between a complete blink after application of fluorescein to the cornea and the appearance of the first random dry spot in the tear film. […] At least ninety seconds later, corneal epithelial damage was graded using a slit-lamp with a cobalt blue filter after another drop of 0.1% fluorescein was reapplied to the cornea; the cornea then was scored per the Draize ocular scale.
Tear production was measured three times a week in both eyes using PRTT test strips (Zone-Quick; Menicon, Nagoya, Japan). Prior to the first treatment of the day, a thread was applied to the lateral canthus of the conjunctival fornix of each eye for 30 seconds under slit-lamp biomicroscopy. Tear migration up the tread (i.e., the length of the wetted cotton thread) was measured using a millimeter scale.
At necropsy on Day 22, both eyes from each animal, including the globes, lacrimal glands, eyelids, and conjunctivae, were excised. The right eye and associated tissues were fixed by overnight submersion in modified Davidson's solution followed by transfer to 10% neutral buffered formalin (NBF). The fixed tissues of the right eye were dehydrated, embedded in paraffin, sectioned at 3 to 5-μm thicknesses, and slide-mounted tissues were stained with hematoxylin and eosin (H & E). Stained slides were evaluated via light microscopy. Detailed and complete histopathologic assessment was conducted on all parts of the eye, with at least two section levels being examined histopathologically for each right eye. Special attention was paid to the cornea, epithelia (including goblet cells) of the conjunctiva and cornea, as well as the lacrimal gland. These tissues were scored for injury based upon a 0-4 scale, with 0 being normal, 1 being minimal, 2 being mild, 3 being moderate, and 4 being severe. For each cornea, scores were based on corneal epithelium thickness, and corneal inflammation.

[3] = system: established type II collagen arthritis in rats; assay: Chronic established type II collagen arthritis, daily IV 14 days; type: in vivo, rat
Source text: Rat collagen arthritis is an experimental model of polyarthritis that has been widely used for preclinical testing of numerous anti-arthritic agents that are either under preclinical or clinical investigation or are currently used as therapeutics in this disease. […] Animals were terminated on arthritis day 14.

[4] = vs disease controls, IV QD d1-14, Dex 0.05 mg/kg, SEQ ID NO: 172 up to 5 mg/kg

SMILES: CC(C)C[C@H](NC(=O)[C@H](CC(N)=O)NC(=O)[C@H](CC(C)C)NC(=O)[C@@H](NC(=O)[C@@H](C)NC(=O)[C@@H]1CCCN1C(=O)[C@H](CCCNC(=N)N)NC(=O)[C@@H](CCCCN)NC(=O)[C@@H]1CCCN1C(=O)[C@H](CCCNC(=N)N)NC(=O)[C@@H](CCCNC(=N)N)NC(=O)[C@H](CCCNC(=N)N)NC(=O)[C@H](CCCNC(=N)N)NC(=O)[C@H](CCC(N)=O)NC(=O)[C@@H](CCCNC(=N)N)NC(=O)[C@H](CCCNC(=N)N)NC(=O)[C@H](CCCCN)NC(=O)[C@H](CCCCN)NC(=O)[C@H](N)CCCNC(=N)N)[C@@H](C)O)C(=O)N[C@H](Cc1ccccc1)C(N)=O [SEQ ID NO: 172, rKKRrQRRrRPkRPaTLNLf] (H-[dR]KKR[dR]QRR[dR]RP[dK]RP[dA]TLNL[dF]-NH2; N-terminus assumed)
- clinical score (mean±SEM) ([1]; 0.015 mg/kg i.v.): 2.3±0.3
- clinical score, median ([1]; 0.015 mg/kg i.v.): 2
- reduction of inflammation vs vehicle ([1]; 0.015 mg/kg i.v.): 36%
- clinical score (mean±SEM) ([1]; 0.18 mg/kg i.v.): 2.4±0.3
- clinical score, median ([1]; 0.18 mg/kg i.v.): 2
- reduction of inflammation vs vehicle ([1]; 0.18 mg/kg i.v.): 33%
- clinical score (mean±SEM) ([1]; 1.80 mg/kg i.v.): 2.1±0.3
- clinical score, median ([1]; 1.80 mg/kg i.v.): 2
- reduction of severity of ocular inflammation vs vehicle ([1]; 1.80 mg/kg i.v.): 42%
- TBUT mean nadir (Day 7) ([2]; 0.05% TID OU): 6.6 ± 0.4 s
- TBUT mean peak (Day 9) ([2]; 0.05% TID OU): 8.0 ± 0.4 s
- Mean PRTT AUC ([2]; 0.05% TID OU): 44.38
- Mean Calculated TBUT AUC ([2]; 0.05% TID OU): 102.98
- TBUT mean nadir (Day 7) ([2]; 0.2% TID OU): 6.7 ± 0.4 s
- TBUT mean peak (Day 9) ([2]; 0.2% TID OU): 10.0 ± 0.7 s
- histological cornea scores compared to cyclosporine group ([2]; 0.2% TID OU): not significantly different than the cyclosporine group scores
- Mean PRTT AUC ([2]; 0.2% TID OU): 44.85
- Mean Calculated TBUT AUC ([2]; 0.2% TID OU): 119.08
- TBUT mean nadir (Day 7) ([2]; 0.6% TID OU): 6.7 ± 0.3 s
- TBUT mean peak (Day 9) ([2]; 0.6% TID OU): 9.9 ± 0.8 s
- histological cornea scores compared to cyclosporine group ([2]; 0.6% TID OU): not significantly different than the cyclosporine group scores
- Mean PRTT AUC ([2]; 0.6% TID OU): 46.10
- Mean Calculated TBUT AUC ([2]; 0.6% TID OU): 119.31
- TBUT AUC compared with vehicle control ([2]; SEQ ID NO: 172 0.05%, 0.2% and 0.6%, cyclosporine 0.05%, Kruskal-Wallis): significant increases in the TBUT AUC
- PRTT, aqueous tear production ([2]; low, mid and high dose levels): produced significantly more aqueous tears compared to vehicle-treated animals
- ankle diameter AUC, reduction toward normal ([3]; 1 mg/kg IV QD d1-14): 27%
- inhibition of body weight loss vs disease controls ([3]; 1 mg/kg IV QD d1-14): 21%
- ankle diameter AUC, reduction toward normal ([3]; 5 mg/kg IV QD d1-14): 43%
- ankle histopathology, reduction of summed scores ([3]; 5 mg/kg IV QD d1-14): 25%
- final paw weights, reduction toward normal ([3]; 5 mg/kg IV QD d1-14): 26%
- inhibition of body weight loss vs disease controls ([3]; 5 mg/kg IV QD d1-14): 25%
- knee histopathology, reduction of summed scores ([3]; 5 mg/kg IV QD d1-14): 73%
- daily ankle diameter measurements ([3]; 5 mg/kg IV QD, p<0.05 days 4-12): reduced toward normal
- effect on organ weights ([3]; IV QD d1-14): no adverse effect on organ weights
- spleen weights relative to body weight [3, 4]: not significantly affected
- thymus weights relative to body weight [3, 4]: not significantly affected

SMILES: CC(C)C[C@@H](NC(=O)[C@@H](Cc1ccccc1)NC(=O)[C@H]1CCCN1C(=O)[C@@H](CCC(N)=O)NC(=O)[C@H](NC(=O)[C@H]1CCCN1C(=O)[C@@H](CCCNC(=N)N)NC(=O)[C@@H](CO)NC(=O)[C@@H](CCC(N)=O)NC(=O)[C@H](N)CC(=O)O)C(C)C)C(=O)N[C@H](CC(N)=O)C(=O)N[C@H](CC(C)C)C(=O)N[C@@H](C(=O)N[C@@H](C(=O)N1CCC[C@@H]1C(=O)N[C@H](CCCNC(=N)N)C(=O)N[C@H](CCCCN)C(=O)N1CCC[C@@H]1C(=O)N[C@H](CCCNC(=N)N)C(=O)N1CCC[C@@H]1C(=O)N1CCC[C@@H]1C(=O)N[C@H](CCCNC(=N)N)C(=O)N[C@H](CCCNC(=N)N)C(=O)N[C@H](CCCNC(=N)N)C(=O)N[C@H](CCC(N)=O)C(=O)N[C@H](CCCNC(=N)N)C(=O)N[C@H](CCCNC(=N)N)C(=O)N[C@H](CCCCN)C(=O)N[C@H](CCCCN)C(=O)N[C@H](CCCNC(=N)N)C(=O)NCC(N)=O)[C@H](C)O)[C@H](C)O [SEQ ID NO: 197, dqsrpvqpflnlttprkprpprrrqrrkkrg, reference compound] (H-[dD][dQ][dS][dR][dP][dV][dQ][dP][dF][dL][dN][dL][dT][dT][dP][dR][dK][dP][dR][dP][dP][dR][dR][dR][dQ][dR][dR][dK][dK][dR]G-NH2)
- clinical score (mean±SEM) ([1]; 2 mg/kg i.v.): 2.2±0.3
- clinical score, median ([1]; 2 mg/kg i.v.): 2
- decrease of EIU scores vs vehicle group ([1]; 2 mg/kg i.v.): 40%
- corneal changes in comparison to other treatment groups ([2]; 0.06% TID OU): slightly more severe
- Mean PRTT AUC ([2]; 0.06% TID OU): 39.96
- Mean Calculated TBUT AUC ([2]; 0.06% TID OU): 88.54
- Mean PRTT AUC ([2]; 0.25% TID OU): 42.79
- Mean Calculated TBUT AUC ([2]; 0.25% TID OU): 91.19
- histological cornea scores compared to cyclosporine group ([2]; 0.6% TID OU): not significantly different than the cyclosporine group scores
- Mean PRTT AUC ([2]; 0.6% TID OU): 43.17
- Mean Calculated TBUT AUC ([2]; 0.6% TID OU): 89.98
- PRTT, aqueous tear production ([2]; low, mid and high dose levels): generally dose-dependent increases in PRTT
- TBUT ([2]; low, mid and high dose levels): slight generally dose-dependent increases in TBUT
